Entries after “also recorded” stand apart in the source; their conditions may differ. Where a SMILES comes first, the peptide text is derived from it. [ ]: non-standard residue; d: D form. The star is where a group is joined. ξ: configuration not given here. NH(TEMPO-4-yl) = CC1(C)CC(N*)CC(C)(C)N1[O]; Orn = NCCC[C@H](N)C(=O)O; Cbz = O=C(OCc1ccccc1)*; Boc = CC(C)(C)OC(=O)*; ξOrn = NCCCC(N)C(=O)O; X1 = CC1CCN=C(N*)S1
Key:
[1] = test system: mouse embryonic cells (MEC); experiment: EPR-based analysis of integration and reduction of nitroxide Gramicidin S-peptidyl conjugates in MECs; assay type: cell-based; settings: 10 μM, whole cells, cytosol fractions
Description: Electron paramagnetic resonance (“EPR”) spectroscopy was used to monitor the cellular delivery of compounds 5a and 5b shown in FIG. 3 in mouse embryonic cells (“MEC”).
The following conditions were used during the EPR-based analysis of the integration and reduction of nitroxide Gramicidin S-peptidyl conjugates in MECs. The MECs at a concentration of 10 million MECs per mL were incubated with 10 μM of 4-AT and compound 5a, respectively. Recovered nitroxide radicals in whole cells, mitochondria, and cytosol fractions were resuspended in phosphate buffer saline (“PBS”) in the presence and absence, respectively, of 2 μM K3Fe(CN)6.

[2] = test system: MECs; experiment: Intracellular superoxide generation (DHE flow cytometry) in ActD-treated MECs; assay type: cell-based, mouse; settings: 10 μM pretreatment; ActD 100 ng/mL
Description: Determination of intracellular superoxide radicals. Oxidation-dependent fluorogenic dye, dihydroethidium (“DHE”, Molecular Probes) was used to evaluate intracellular production of superoxide radicals. DHE is cell permeable and, in the presence of superoxide, is oxidized to fluorescent ethidium which intercalates into DNA. The fluorescence of ethidium was measured using a FACscan (Becton-Dickinson, Rutherford, N.J.) flow cytometer, equipped with a 488-nm argon ion laser and supplied with the Cell Quest software. Mean fluorescence intensity from 10,000 cells were acquired using a 585-nm bandpass filter (FL-2 channel).

[3] = test system: mitochondria of 32D c 13 hemopoietic cells; experiment: Mass spectrometry of compounds in mitochondria isolated from 32D cl 3 cells; assay type: cell-based, murine; settings: 100 μM; two hours at 37° C.
Description: An unconjugated and conjugated NOS antagonist, (AMT, 100 μM) and an unconjugated and conjugated nitroxide derivative (4-amino-TEMPO, 100 μM) were incubated for two hours at 37° C. with 32D c 13 hemopoietic cells.
Following incubation, the cells were lysed and the mitochondria isolated for a mass spectrometry analysis where compounds isolated from mitochondria were identified as Na+ adducts. […] Thus, the targeting peptides successfully direct a NOS antagonist and a nitroxide to the mitochondria.

[4] = test system: irradiated uroepithelial cells; experiment: NO and peroxynitrite production in irradiated uroepithelial cells; assay type: cell-based; settings: 4-amino-TEMPO 100 μM, AMT 10 μM; capsaicin evoked; 24 hours after irradiation
Description: Further physiological studies were conducted to determine the effects of peptide-targeted AMT and 4-amino-TEMPO on NO and peroxynitrite production in irradiated uroepithelial cells. The cells were cultured in an 8-well slide chamber for 3 days and then microsensor measurements were taken 24 hours after irradiation.
In cells treated with high-dose conjugated 4-amin-TEMPO (100 μM), peroxynitrite production was decreased by approximately 4-fold.

[5] = test system: MECs; experiment: ActD-induced apoptosis in MECs (annexin V, caspase-3, DNA fragmentation); settings: for DNA fragmentation / caspase-3 activation / number of annexin V-positive cells (PS externalization): 10 μM, ActD 100 ng/mL
Description: The ability of 5a, 5b, and 4-AT to protect cells against apoptosis triggered by actinomycin D (“ActD”) was also tested. MECs were pretreated with 10 μM 4-AT, 5a, or 5b then incubated with ActD at a concentration of 100 ng/mL.
Externalization of PS was analyzed by flow cytometry using an annexin V kit. Cells were harvested by trypsinization at the end of incubation and then stained with annexin V-FITC and propidium iodide (“PS”). Ten thousand cell events were collected on a FACScan flow cytometer. Annexin V-positive and PI-negative cells were considered apoptotic.
Activation of capase-3, a cysteine protease only activated in the execution phase of apoptosis, was determined using an EnzChek capsase-3 assay kit.
These DNA fragments are eluted, stained with propidium iodide and analyzed using flow cytometry. A cell population with decreased DNA content was considered a fraction of apoptotic cells.

[6] = test system: mitochondrial membrane; experiment: Quantitative mass spectrometry of AMT peptide conjugates permeating the mitochondrial membrane; assay type: cell-based; settings: relative quantification of conjugate at the target site
Description: Quantitative mass spectrometry studies were used to compare the effectiveness of several AMT peptide conjugates in permeating the mitochondrial membrane, specifically XJB-5-234, XJB-5-133, XJB-5-241, and XJB-5-127. The fmole/10 μM mitochondrial protein ratio provides a relative quantification of conjugate concentration at the target site.

[7] = test system: 32D cl 3 mouse hematopoietic progenitor cell line; experiment: Irradiation survival curves of 32D cl 3 cells with JP4-039; assay type: cell-based; settings: 10 μM
Description: Irradiation survival curves were performed on cells from the 32D cl 3 mouse hematopoietic progenitor cell line, incubated in 10 μM JP4-039 for 1 hour before irradiation, or plated in methylcellulose containing 10 μM […] after irradiation. Cells were irradiated from 0 to 8 Gy, plated in 0.8% methylcellulose containing media, and incubated for 7 days at 37° C. Colonies of greater than 50 cells were counted and data analyzed by linear quadratic and single-hit, multi-target models.

[8] = test system: KM101 human marrow stromal cells; experiment: Irradiation survival of KM101 cells with JP4-039; assay type: cell-based; settings: 10 μM
Description: KM101 cells were incubated in media alone or in JP4-039 (10 μM) for one hour before irradiation or 24 hours after irradiation. The cells were irradiated to doses ranging from 0 to 6 Gy and plated in 4 well plates. Seven days later the cells were stained with crystal violet and colonies of greater than 50 cells counted. Cells incubated in JP4-039 either before or after irradiation were more radioresistant as shown by an increased shoulder of n=2.3±0.2 or 2.2±0.2, respectively compared to n of 1.1±0.1 for the KM101 cells (p=0.0309 or 0.0386, respectively).

[9] = test system: mice exposed to total body irradiation; experiment: Survival of mice after total body irradiation; assay type: in vivo, mouse
Description: In FIG. 17A, mice received intraperitoneal injection of 10 mg per kilogram of each of the chemicals indicated in FIG. 5, then 24 hours later received 9.75 Gy total body irradiation according to published methods. Mice were followed for survival according to IACUC regulations. […] (P=0.0008). In FIG. 17B, mice received intraperitoneal injection of JP4-039 either 10 minutes before (square symbols) or 4 hours after (triangle symbols) irradiation with 9.75 Gy.
Groups of 15 mice received intraperitoneal injection of 10 mg. per kilogram of each indicated GS-nitroxide compound or carrier (Cremphora plus alcohol at 1 to 1 ratio, then diluted 1 to 10 in distilled water). Mice received 10 mg per kilogram intra-peritoneal injection 24 hours prior to total body irradiation. Control mice received radiation alone. […] (P=0.0005)

[10] = test system: MEF cells prepared from Ercc1−/− mouse embryos; experiment: Toxicity of JP4-039 in Ercc1−/− MEF cultures; assay type: cell-based; settings: 48 hours
Description: (§1) To assess the therapeutic potential of JP4-039, tests for safety and protective activity were performed. FIGS. 35 and 36 show the results of tests to evaluate whether varying concentrations of JP4-039 produce toxic effects after 48 hours in cultures of MEF cells prepared from Ercc1^−/− or wild-type mouse embryos, respectively.

[11] = test system: MEF cells prepared from wild-type mouse embryos; experiment: Toxicity of JP4-039 in wild-type MEF cultures; assay type: cell-based; settings: up to 10 μM, 48 hours
Description: as §1

[12] = test system: p16 in primary MEFs from Ercc1−/− mouse embryos; experiment: p16 immunofluorescence in Ercc1−/− MEFs under 20% oxygen; assay type: cell-based; settings: 1 uM, 48 hrs
Description: To test the protective activity of JP4-039, cultures of primary MEFs were prepared from Ercc1^−/− mouse embryos and grown under 20% oxygen (ambient air), which creates oxidative stress in these cells that are hypersensitive to reactive oxygen species. The cells were then either treated with a concentration of 1 uM XJB-5-131, JP4-039, JED-E71-37 or JED-E71-58, or left untreated (media), and then after 48 hrs the level of p16, a marker of irreversible cellular senescence, was measured by immunofluorescence staining.

[13] = test system: γ-H2AX in primary MEF cells from Ercc1−/− mice; experiment: γ-H2AX immunostaining in Ercc1−/− MEFs under oxidative stress; assay type: cell-based, mouse; settings: 1 μM, 48 hours
Description: Next, the abilities of these two agents, as well as XJB-5-131 and JP4-039, each at a concentration of 1 μM, were tested for their ability to prevent oxidation-induced DNA double-strand breaks in cell cultures prepared, and oxidatively stressed, as in the preceding paragraph. Treated as well as untreated cells were, after 48 hours of treatment, immunostained for γ-H2AX, a marker of DNA double-strand breaks as well as cellular senescence.

For `CC1(C)CC(N)CC(C)(C)N1[O]` [4-amino-TEMPO, reference compound], the “EPR signals of nitroxide radicals; integration into cells and mitochondria” value [1] was “did not effectively permeate cells or the mitochondria”, the intracellular superoxide generation [2] was “had no effect” and the “permeation of the mitochondrial membrane (MS, Na+ adducts)” value [3] was “only permeate the mitochondrial membrane with the assistance of the attached GS-derived targeting sequence”. For the same molecule, the peroxynitrite formation [4] was “comparable amount of peroxynitrite” and the “protection against ActD-induced apoptosis” value ([5]; 10 μM / low concentrations) was “afforded no protection”.
In the case of `CC(C)C[C@@H](/C=C/[C@H](Cc1ccccc1)C(=O)N1CCC[C@H]1C(=O)N[C@H](C(=O)N[C@@H](CCCNC(=O)OCc1ccccc1)C(=O)NC1=NCCC(C)S1)C(C)C)NC(=O)OC(C)(C)C` (stereo partly drawn) [XJB-5-133, Boc-leu-ψ[(E)-CH═CH]-^DPhe-Pro-Val-Orn(Cbz)-AMT], the “fmole/10 μM mitochondrial protein” value [6] is reported as 89.8 fmole/10 μM mitochondrial protein.
With `CC(C)C[C@H](NC(=O)OC(C)(C)C)C(=O)N[C@H](Cc1ccccc1)C(=O)N1CCC[C@H]1C(=O)N[C@H](C(=O)N[C@@H](CCCNC(=O)OCc1ccccc1)C(=O)NC1CC(C)(C)N([O])C(C)(C)C1)C(C)C` [5b] (Boc-L[dF]PV[Orn](Cbz)-{NH(TEMPO-4-yl)}) the intracellular superoxide generation [2] was “completely inhibited”, the DNA fragmentation [5] was “prevented DNA fragmentation” and the caspase-3 activation [5] was “prevented caspase-3 activation”. For the same molecule, the “number of annexin V-positive cells (PS externalization)” value [5] was “reduced the number of annexin V•positive cells” and the “protection or cytotoxicity at higher concentration” value ([5]; concentrations in excess of 10 μM) was “either less protective or exhibited cytotoxicity”.
With `C/C(=C\[C@H](Cc1ccccc1)C(=O)N1CCC[C@H]1C(=O)N[C@H](C(=O)NC(CCCNC(=O)OCc1ccccc1)C(=O)NC1=NCCC(C)S1)C(C)C)[C@H](CC(C)C)NC(=O)OC(C)(C)C` (stereo partly drawn) [XJB-5-241, Boc-Leu-ψ[(E)-C(CH3)═CH]-^DPhe-Pro-Val-Orn(Cbz)-AMT] the “fmole/10 μM mitochondrial protein” value [6] was 103.3 fmole/10 μM mitochondrial protein.
For `CC(C)C[C@@H](/C=C/[C@H](Cc1ccccc1)C(=O)N1CCC[C@H]1C(=O)N[C@H](C(=O)N[C@@H](CCCNC(=O)OCc1ccccc1)C(=O)NC1CC(C)(C)N([O])C(C)(C)C1)C(C)C)NC(=O)OC(C)(C)C` [5a], the intracellular superoxide generation [2] was “completely inhibited”, the DNA fragmentation [5] was “prevented DNA fragmentation” and the caspase-3 activation [5] was “prevented caspase-3 activation”. For the same molecule, the “number of annexin V-positive cells (PS externalization)” value [5] was “reduced the number of annexin V•positive cells”.
`CC(C)C[C@@H](/C=C/CC(=O)NC1CC(C)(C)N([O])C(C)(C)C1)NC(=O)OC(C)(C)C` [JP4-039, TEMPO-4-yl-(S,E)-5-(tert-butoxycarbonylamino)-7-methyloct-3-enamide] was tested, and the “hematopoietic cell radiation mitigation” value [7] was “effective hematopoietic cell radiation mitigator”, the “mitigation of irradiation damage” value [8] was “effective mitigator” and the “change in the Do” value ([8]; before or after irradiation) was “no significant change”. For the same molecule, the survival of mice ([9]; 9.5 Gy total body irradiation, 10 mg per kilogram intraperitoneal 24 hours prior) was “increases survival”, the survival of mice ([9]; 9.75 Gy total body irradiation, 10 mg per kilogram intraperitoneal) was “significant increase in survival; also recorded: increases survival” and the “cellular proliferation relative to untreated control cells” value ([10]; Ercc1−/− or wild-type MEF) was “enhanced”. For the same molecule, the toxicity ([10]; up to 10 μM) was “no signs of toxicity were observed”, the toxicity [11] was “no signs of toxicity were observed” and the “level of p16” value [12] was “much lower”. For the same molecule, the “γ-H2AX (oxidation-induced DNA double-strand breaks)” value [13] was “also effective”.
With `CC(C)C[C@H](NC(=O)OC(C)(C)C)C(=O)N[C@H](Cc1ccccc1)C(=O)N1CCC[C@H]1C(=O)N[C@H](C(=O)NC(CCCNC(=O)OCc1ccccc1)C(=O)NC1=NCCC(C)S1)C(C)C` (stereo partly drawn) [XJB-5-127, Boc-Leu-^DPhe-Pro-Val-Orn(Cbz)-AMT] (Boc-L[dF]PV[ξOrn](Cbz)-X1) the “fmole/10 μM mitochondrial protein” value [6] was 50.8 fmole/10 μM mitochondrial protein.
`CC1CCN=C(N)S1` (stereo not drawn) [AMT, 2-amino-6-methyl-thiazine] was tested, and the “permeation of the mitochondrial membrane (MS, Na+ adducts)” value [3] was “do not enter the mitochondria membrane in substantial quantities” and the peroxynitrite formation [4] was “comparable amount of peroxynitrite”.
In the case of `CC(C)C[C@@H](/C=C/[C@H](Cc1ccccc1)C(=O)NC1=NCCC(C)S1)NC(=O)OC(C)(C)C` (stereo partly drawn) [XJB-5-234, Boc-Leu-[ψ(E)-CH═CH]-^DPhe-AMT], the “fmole/10 μM mitochondrial protein” value [6] is reported as 1.45 fmole/10 μM mitochondrial protein.

Reference: patent publication US9890192B2, “Targeted nitroxide agents” (University of Pittsburgh—of the Commonwealth System of …, priority 2008, dated 2018)
